These results are taken from patent publication US9930890B2 (priority 2010, dated 2018).

Structures are written as SMILES.

One series has as its system Phytophthora infestans. In kind it is in vivo. Particulars: tomato plants, protective spray, active ingredient concentration 100 ppm, evaluation 7 days after inoculation; 0% = control, 100% = no infection.
The next series has as its system Plasmopara viticola. Nature of the series: Plasmopara test (grapevine)/protective. In kind it is in vivo. Particulars: grapevine young plants, protective spray, active ingredient concentration 10 ppm, evaluation 6 days after inoculation; 0% = control, 100% = no infection. Here is the method:
Plasmopara Test (Grapevine)/Protective
To produce an appropriate active ingredient formulation, 1 part by weight of active ingredient is mixed with the specified amounts of solvent and emulsifier, and the concentrate is diluted with water to the desired concentration.
To test for protective efficacy, young plants are sprayed with the active ingredient formulation at the stated application rate. After the spray coating has dried on, the plants are inoculated with an aqueous spore suspension of Plasmopara viticola and then remain in an incubation cabin at approx. 20° C. and 100% relative air humidity for 1 day. Subsequently, the plants are placed in a greenhouse at approx. 21° C. and approx. 90% air humidity for 4 days. The plants are then moistened and placed in an incubation cabin for 1 day.
Evaluation follows 6 days after the inoculation. 0% means an efficacy which corresponds to that of the control, whereas an efficacy of 100% means that no infection is observed.
In this test, the following inventive compounds show, at an active ingredient concentration of 10 ppm, an efficacy of 70% or more: […]

The conditions of series [1]: for logp [a]: pH 2.7; for logp [b]: pH 7.8.

For `CON=C(C)c1cccc(C2CC(c3csc(C4CCN(C(=O)Cn5nc(C(F)(F)F)cc5C)CC4)n3)=NO2)c1` (mixture of isomers) [I-3], the Eff. % in the series on Phytophthora infestans is 100%; in the series on Plasmopara viticola, 97%. The “logp [a]” value in series [1] is 3.7[a].

For `CCON=C(C)c1cccc(C2CC(c3csc(C4CCN(C(=O)Cn5nc(C(F)F)cc5C(F)F)CC4)n3)=NO2)c1` (mixture of isomers) [I-5], the figures for the Eff. % in the series with Phytophthora infestans and in the series on Plasmopara viticola were 100% and 87%, respectively.

Regarding `CC(=NO)c1cccc(C2CC(c3csc(C4CCN(C(=O)Cn5nc(C(F)(F)F)cc5C)CC4)n3)=NO2)c1` (mixture of isomers) [I-7], the Eff. % in the series on Phytophthora infestans and in the series with Plasmopara viticola was 100% throughout. Besides, the “logp [a]” value in series [1] is 2.8[a].

As to `Cc1cc(C(F)(F)F)nn1CC(=O)N1CCC(c2nc(C3=NOC(c4cccc(C=NO)c4)C3)cs2)CC1` (mixture of isomers) [I-10], the Eff. % in the series with Phytophthora infestans turned out to be 100%; with Plasmopara viticola, 92%.

As for `Cc1ccc(Cl)cc1NC(=O)N1CCC(c2nc(C3=NOC(c4cccc(C=NO)c4)C3)cs2)CC1` (mixture of isomers) [I-14], the Eff. % in the series with Phytophthora infestans and in the series on Plasmopara viticola was 100% throughout.

Regarding `CON=Cc1cccc(C2CC(c3csc(C4CCN(C(=O)Cn5nc(C(F)(F)F)cc5C)CC4)n3)=NO2)c1` (mixture of isomers) [I-15], the Eff. % is on record as 100% in the series on Phytophthora infestans and 81% in the series with Plasmopara viticola.

Take `CON=Cc1cccc(C2CC(c3csc(C4CCN(C(=O)Cn5nc(C(F)F)cc5C(F)F)CC4)n3)=NO2)c1` (mixture of isomers) [I-16]: the Eff. % in the series on Plasmopara viticola was determined as 94%.

With `CC(=NO)c1cccc(C2CC(c3csc(C4CCN(C(=O)Cn5nc(C(F)F)cc5C(F)F)CC4)n3)=NO2)c1` (mixture of isomers) [I-18], the Eff. % in the series with Phytophthora infestans and in the series with Plasmopara viticola was 100% throughout.

Turning to `CON=Cc1cccc(C2CC(c3csc(C4CCN(C(=O)Nc5cc(Cl)ccc5C)CC4)n3)=NO2)c1` (mixture of isomers) [I-19], the Eff. % with Phytophthora infestans and with Plasmopara viticola was 100% throughout.

In the case of `CON=C(C)c1cccc(C2CC(c3csc(C4CCN(C(=O)Cn5nc(C(F)F)cc5C(F)F)CC4)n3)=NO2)c1` (mixture of isomers) [I-21], the Eff. % with Phytophthora infestans and in the series with Plasmopara viticola was 100% each time.

As for `O=C(Cn1nc(C(F)F)cc1C(F)F)N1CCC(c2nc(C3=NOC(c4cccc(C=NO)c4)C3)cs2)CC1` (mixture of isomers) [I-22], the Eff. % in the series on Phytophthora infestans and in the series with Plasmopara viticola was 100% throughout.

Consider `CON=C(C)c1cccc(C2CC(c3csc(C4CCN(C(=O)Nc5cc(Cl)ccc5C)CC4)n3)=NO2)c1` (mixture of isomers) [I-23], for which the values for the Eff. % in the series with Phytophthora infestans and in the series with Plasmopara viticola were 100% and 98%, respectively.

In the case of `CCON=Cc1ccccc1C1CC(c2csc(C3CCN(C(=O)Cn4nc(C(F)F)cc4C(F)F)CC3)n2)=NO1` (mixture of isomers) [I-27], the Eff. % in the series with Phytophthora infestans is 100%; in the series on Plasmopara viticola, 99%.

For `CON=C(C)c1ccccc1C1CC(c2csc(C3CCN(C(=O)Cn4nc(C(F)(F)F)cc4C)CC3)n2)=NO1` (mixture of isomers) [I-31], the values for the Eff. % with Phytophthora infestans and with Plasmopara viticola were 100% and 97%, respectively.

As for `CON=C(C)c1ccccc1C1CC(c2csc(C3CCN(C(=O)Cn4nc(C(F)F)cc4C(F)F)CC3)n2)=NO1` (mixture of isomers) [I-32], the Eff. % is recorded as 100% in the series with Phytophthora infestans and 85% in the series with Plasmopara viticola.

On to `O=C(Cn1nc(C(F)F)cc1C(F)F)N1CCC(c2nc(C3=NOC(c4ccccc4C=NO)C3)cs2)CC1` (mixture of isomers) [I-35], for which the Eff. % is recorded as 95% with Phytophthora infestans and 100% with Plasmopara viticola.

With `Cc1ccc(Cl)cc1NC(=O)N1CCC(c2nc(C3=NOC(c4ccccc4C=NO)C3)cs2)CC1` (mixture of isomers) [I-36], the Eff. % in the series on Phytophthora infestans and in the series with Plasmopara viticola was 100% throughout.

`CC(=O)Nc1ccc(C2CC(c3csc(C4CCN(C(=O)Cn5nc(C(F)F)cc5C(F)F)CC4)n3)=NO2)cc1` (racemic) [I-25]: in the series on Plasmopara viticola, the Eff. % is reported as 97%. The “logp [a]” value in series [1] is 2.2[a],.

For the compound `CS(=O)(=O)Oc1cc(Cl)ccc1C1CC(c2csc(C3CCN(C(=O)Cn4nc(C(F)F)cc4C(F)F)CC3)n2)=NO1` (centres unmarked) [I-70], the Eff. % in the series on Phytophthora infestans stood at 97%. Besides, in series [1], the “logp [a]” value is 3.27[a], and the “logp [b]” value is 3.27[b].

In the case of `N#CCOc1cc(Cl)ccc1C1CC(c2csc(C3CCN(C(=O)Cn4nc(C(F)F)cc4C(F)F)CC3)n2)=NO1` (centres unmarked) [I-71], the Eff. % with Phytophthora infestans turned out to be 100%. In addition, in series [1], the “logp [a]” value is 3.23[a], and the “logp [b]” value is 3.22[b].

Compound `N#CCOc1cccc(Cl)c1C1CC(c2csc(C3CCN(C(=O)Cn4nc(C(F)F)cc4C(F)F)CC3)n2)=NO1` (centres unmarked) [I-75] had an Eff. % in the series with Plasmopara viticola of 100%. For the same compound, in series [1], the “logp [a]” value is 3.19[a], and the “logp [b]” value was 3.11[b].

`C=CCOCc1ccccc1C1CC(c2csc(C3CCN(C(=O)Cn4nc(C(F)(F)F)cc4C)CC3)n2)=NO1` (centres unmarked) [I-93]: the Eff. % in the series on Phytophthora infestans was determined as 95%. Moreover, the “logp [a]” value in series [1] was 3.84[a].

Compound `C=CCOCc1ccccc1C1CC(c2csc(C3CCN(C(=O)Cn4nc(C(F)F)cc4C(F)F)CC3)n2)=NO1` (centres unmarked) [I-94] gave an Eff. % with Phytophthora infestans of 100%. Moreover, in series [1], the “logp [a]” value is 3.63[a].

In turn, `Cc1cc(C(F)(F)F)nn1CC(=O)N1CCC(c2nc(C3=NOC(c4cccc(OCC#N)c4)C3)cs2)CC1` (centres unmarked) [I-95] yielded an Eff. % with Phytophthora infestans of 100%. Further, in series [1], the “logp [a]” value is 3.06[a], and the “logp [b]” value is 2.97[b].

With `Cc1cc(C(F)(F)F)nn1CC(=O)N1CCC(c2nc(C3=NOC(c4ccc(OS(C)(=O)=O)cc4)C3)cs2)CC1` (centres unmarked) [I-96], the Eff. % in the series on Phytophthora infestans is given as 95%. In series [1], the “logp [a]” value is 2.9[a], and the “logp [b]” value was 2.81[b].

In the series on Phytophthora infestans, `CCS(=O)(=O)Oc1ccc(C2CC(c3csc(C4CCN(C(=O)Cn5nc(C(F)(F)F)cc5C)CC4)n3)=NO2)cc1` (centres unmarked) [I-97] yielded an Eff. % of 95%. Also, in series [1], the “logp [a]” value is 3.14[a], and the “logp [b]” value is 3.05[b].

In turn, `Cc1cc(C(F)(F)F)nn1CC(=O)N1CCC(c2nc(C3=NOC(c4ccc(OS(=O)(=O)C5CC5)cc4)C3)cs2)CC1` (centres unmarked) [I-98] yielded an Eff. % with Phytophthora infestans of 95%. In series [1], the “logp [a]” value is 3.22[a], and the “logp [b]” value is 3.13[b].

In turn, `CCS(=O)(=O)Oc1cccc(C2CC(c3csc(C4CCN(C(=O)Cn5nc(C(F)(F)F)cc5C)CC4)n3)=NO2)c1` (centres unmarked) [I-99] returned an Eff. % in the series with Phytophthora infestans of 100%. Besides, in series [1], the “logp [a]” value is 3.18[a], and the “logp [b]” value was 3.08[b].

`COCCSCc1ccccc1C1CC(c2csc(C3CCN(C(=O)Cn4nc(C(F)F)cc4C(F)F)CC3)n2)=NO1` (centres unmarked) [I-100] displayed an Eff. % in the series with Phytophthora infestans of 100%. Moreover, the “logp [a]” value in series [1] is 3.5[a].

As for `Cc1cc(C(F)(F)F)nn1CC(=O)N1CCC(c2nc(C3=NOC(c4cccc(OS(=O)(=O)C5CC5)c4)C3)cs2)CC1` (centres unmarked) [I-101], the Eff. % with Phytophthora infestans amounted to 100%. Also, in series [1], the “logp [a]” value is 3.25[a], and the “logp [b]” value was 3.12[b].

Consider `C=CC(=O)Oc1ccccc1C1CC(c2csc(C3CCN(C(=O)Cn4nc(C(F)(F)F)cc4C)CC3)n2)=NO1` (centres unmarked) [I-104], for which the Eff. % with Phytophthora infestans is recorded as 97%. Besides, in series [1], the “logp [a]” value was 3.38[a], and the “logp [b]” value is 3.3[b].

On to `O=C(Cn1nc(C(F)F)cc1C(F)F)N1CCC(c2nc(C3=NOC(c4ccccc4OC(=O)C4(Cl)CC4)C3)cs2)CC1` (centres unmarked) [I-107], for which the Eff. % with Phytophthora infestans worked out at 100%. Also, in series [1], the “logp [a]” value is 3.66[a], and the “logp [b]” value is 3.57[b].

`Cc1cc(C(F)(F)F)nn1CC(=O)N1CCC(c2nc(C3=NOC(c4ccccc4NC=O)C3)cs2)CC1` (centres unmarked) [I-109] came in with an Eff. % in the series with Phytophthora infestans of 100%. In series [1], the “logp [a]” value was 2.49[a], and the “logp [b]” value is 2.39[b].

In turn, `N#CCOc1cccc(C2CC(c3csc(C4CCN(C(=O)Cn5nc(C(F)F)cc5C(F)F)CC4)n3)=NO2)c1` (centres unmarked) [I-110] gave an Eff. % in the series on Phytophthora infestans of 100%. In series [1], the “logp [a]” value is 2.95[a], and the “logp [b]” value is 2.88[b].

For `Cc1cc(C(F)(F)F)nn1CC(=O)N1CCC(c2nc(C3=NOC(c4cccc(F)c4OCC#N)C3)cs2)CC1` (centres unmarked) [I-111], in the series on Phytophthora infestans, the Eff. % is given as 98%. In series [1], the “logp [a]” value is 3.22[a], and the “logp [b]” value was 3.13[b].

`O=C(O)c1ccccc1C1CC(c2csc(C3CCN(C(=O)Cn4nc(C(F)F)cc4C(F)F)CC3)n2)=NO1` (centres unmarked) [I-134] yielded an Eff. % in the series with Phytophthora infestans of 93%. The “logp [a]” value in series [1] is 2.63[a].

For the compound `CCNC(=O)Oc1ccccc1C1CC(c2csc(C3CCN(C(=O)Cn4nc(C(F)F)cc4C(F)F)CC3)n2)=NO1` (centres unmarked) [I-136], the Eff. % in the series with Phytophthora infestans amounted to 93%. In series [1], the “logp [a]” value is 2.84[a], and the “logp [b]” value is 2.81[b].

In the series with Phytophthora infestans, `O=C(Cn1nc(C(F)F)cc1C(F)F)N1CCC(c2nc(C3=NOC(c4cccc(OCC#Cc5cccc6ccccc56)c4)C3)cs2)CC1` (centres unmarked) [I-137] gave an Eff. % of 100%. For the same compound, in series [1], the “logp [a]” value was 4.6[a], and the “logp [b]” value was 4.71[b].

The compound `C=CCOCc1ccccc1C1CC(c2csc(C3CCN(C(=O)Cn4nc(C(F)F)cc4C(F)F)CC3)n2)=NO1` (centres unmarked) [I-139] registered an Eff. % with Phytophthora infestans of 80%. The “logp [a]” value in series [1] is 4.11[a].
